Measured values published in PubChem BioAssay AID272 (DTP/NCI, 2004).
Where “and” joins values, the source holds several entries; their conditions need not be identical. Equal entries are not always repeated. Records with an inconclusive call do not appear.

Tested on: Lewis lung carcinoma i.m., BDF1 mice, T/C %
Test: NCI In Vivo Anticancer Drug Screen. Data for tumor model Lewis Lung Carcinoma (intramuscular) in B6D2F1 (BDF1) mice
How it was run: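 Compound given to mice with transplantable tumours; survival or tumour size compared against the vehicle control group, reported as T divided by C.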

## CC(=O)OCC1OC(n2ncc(=O)[nH]c2=O)C(OC(C)=O)C1OC(C)=O (stereo not given)
endpoint: mean tumor weight (est.), dose: 25.0 mg/kg/injection, schedule: Q01DX011 (ip), vehicle: water, higher = larger tumour
  T/C: 89 % of control
endpoint: mean tumor weight (est.), dose: 50.0 mg/kg/injection, schedule: Q01DX011 (ip), vehicle: water, higher = larger tumour
  T/C: 62 % of control
endpoint: mean tumor weight (est.), dose: 200.0 mg/kg/injection, schedule: Q01DX011 (ip), vehicle: water, higher = larger tumour
  T/C: 75 % of control
endpoint: mean tumor weight (est.), dose: 400.0 mg/kg/injection, schedule: Q01DX011 (ip), vehicle: water, higher = larger tumour
  T/C: 85 % of control
endpoint: mean tumor weight (est.), dose: 800.0 mg/kg/injection, schedule: Q01DX011 (ip), vehicle: water, higher = larger tumour
  T/C: 40 % of control
endpoint: mean tumor weight (est.), dose: 1600.0 mg/kg/injection, schedule: Q01DX011 (ip), vehicle: water, higher = larger tumour
  T/C: 56 % of control
endpoint: mean tumor weight, dose: 25.0 mg/kg/injection, schedule: Q01DX011 (ip), vehicle: Klucel (hydroxypropylcellulose) (HPC), higher = larger tumour
  T/C: 78 % of control
endpoint: mean tumor weight, dose: 50.0 mg/kg/injection, schedule: Q01DX011 (ip), vehicle: Klucel (hydroxypropylcellulose) (HPC), higher = larger tumour
  T/C: 71 % of control
endpoint: mean tumor weight, dose: 100.0 mg/kg/injection, schedule: Q01DX011 (ip), vehicle: Klucel (hydroxypropylcellulose) (HPC), higher = larger tumour
  T/C: 65 % of control
endpoint: mean tumor weight, dose: 200.0 mg/kg/injection, schedule: Q01DX011 (ip), vehicle: Klucel (hydroxypropylcellulose) (HPC), higher = larger tumour
  T/C: 68 % of control
endpoint: mean tumor weight, dose: 400.0 mg/kg/injection, schedule: Q01DX011 (ip), vehicle: Klucel (hydroxypropylcellulose) (HPC), higher = larger tumour
  T/C: 93 % of control
endpoint: mean tumor weight, dose: 800.0 mg/kg/injection, schedule: Q01DX011 (ip), vehicle: Klucel (hydroxypropylcellulose) (HPC), higher = larger tumour
  T/C: 37 % of control
endpoint: median survival time, dose: 25.0 mg/kg/injection, schedule: Q01DX011 (ip), vehicle: Klucel (hydroxypropylcellulose) (HPC), higher = longer survival
  T/C: 110 % of control
endpoint: median survival time, dose: 25.0 mg/kg/injection, schedule: Q01DX011 (ip), vehicle: water, higher = longer survival
  T/C: 92 % of control
endpoint: median survival time, dose: 50.0 mg/kg/injection, schedule: Q01DX011 (ip), vehicle: Klucel (hydroxypropylcellulose) (HPC), higher = longer survival
  T/C: 94 % of control
endpoint: median survival time, dose: 50.0 mg/kg/injection, schedule: Q01DX011 (ip), vehicle: water, higher = longer survival
  T/C: 103 % of control
endpoint: median survival time, dose: 100.0 mg/kg/injection, schedule: Q01DX011 (ip), vehicle: Klucel (hydroxypropylcellulose) (HPC), higher = longer survival
  T/C: 112 % of control
endpoint: median survival time, dose: 200.0 mg/kg/injection, schedule: Q01DX011 (ip), vehicle: water, higher = longer survival
  T/C: 98 % of control
endpoint: median survival time, dose: 400.0 mg/kg/injection, schedule: Q01DX011 (ip), vehicle: Klucel (hydroxypropylcellulose) (HPC), higher = longer survival
  T/C: 104 % of control
endpoint: median survival time, dose: 400.0 mg/kg/injection, schedule: Q01DX011 (ip), vehicle: water, higher = longer survival
  T/C: 121 % of control
endpoint: median survival time, dose: 800.0 mg/kg/injection, schedule: Q01DX011 (ip), vehicle: Klucel (hydroxypropylcellulose) (HPC), higher = longer survival
  T/C: 124 % of control
endpoint: median survival time, dose: 800.0 mg/kg/injection, schedule: Q01DX011 (ip), vehicle: water, higher = longer survival
  T/C: 88 % of control
endpoint: median survival time, dose: 1600.0 mg/kg/injection, schedule: Q01DX011 (ip), vehicle: water, higher = longer survival
  T/C: 111 % of control

## S=P(N1CC1)(N1CC1)N1CC1
endpoint: median survival time, dose: 1.5 mg/kg/injection, schedule: Q01DX011 (ip), vehicle: water, higher = longer survival
  T/C: 92 % of control
endpoint: median survival time, dose: 3.0 mg/kg/injection, schedule: Q01DX011 (ip), vehicle: water, higher = longer survival
  T/C: 110 % of control and 119 % of control
endpoint: median survival time, dose: 6.0 mg/kg/injection, schedule: Q01DX011 (ip), vehicle: water, higher = longer survival
  T/C: 86 % of control

## O=NN(CCCl)C(=O)NCc1ccc(-c2ccc(CNC(=O)N(CCCl)N=O)cc2)cc1
endpoint: median survival time, dose: 108.0 mg/kg/injection, schedule: Q07DX003 (ip), vehicle: Klucel (hydroxypropylcellulose) (HPC), higher = longer survival
  T/C: 104 % of control
endpoint: median survival time, dose: 180.0 mg/kg/injection, schedule: Q07DX003 (ip), vehicle: Klucel (hydroxypropylcellulose) (HPC), higher = longer survival
  T/C: 93 % of control

## Cc1n(CC(C)C)c2c([n+]1C)C(=O)c1ccccc1C2=O
endpoint: mean tumor weight (est.), dose: 2.0 mg/kg/injection, schedule: Q01DX011 (ip), vehicle: saline with Tween-80, higher = larger tumour
  T/C: 40 % of control
endpoint: median survival time, dose: 2.0 mg/kg/injection, schedule: Q01DX011 (ip), vehicle: saline with Tween-80, higher = longer survival
  T/C: 91 % of control

## COc1cc2c3c(c4ccc(OC)c(OC)c4c2cc1OC)CN1CCC[C@@H]1C3
endpoint: mean tumor weight, dose: 1.0 mg/kg/injection, schedule: Q01DX011 (ip), vehicle: Klucel (hydroxypropylcellulose) (HPC), higher = larger tumour
  T/C: 88 % of control and 93 % of control
endpoint: mean tumor weight, dose: 2.0 mg/kg/injection, schedule: Q01DX011 (ip), vehicle: Klucel (hydroxypropylcellulose) (HPC), higher = larger tumour
  T/C: 69 % of control and 77 % of control
endpoint: mean tumor weight, dose: 4.0 mg/kg/injection, schedule: Q01DX011 (ip), vehicle: Klucel (hydroxypropylcellulose) (HPC), higher = larger tumour
  T/C: 85 % of control and 89 % of control
endpoint: mean tumor weight, dose: 8.0 mg/kg/injection, schedule: Q01DX011 (ip), vehicle: Klucel (hydroxypropylcellulose) (HPC), higher = larger tumour
  T/C: 64 % of control and 73 % of control
endpoint: mean tumor weight, dose: 16.0 mg/kg/injection, schedule: Q01DX011 (ip), vehicle: Klucel (hydroxypropylcellulose) (HPC), higher = larger tumour
  T/C: 41 % of control
endpoint: median survival time, dose: 1.0 mg/kg/injection, schedule: Q01DX011 (ip), vehicle: Klucel (hydroxypropylcellulose) (HPC), higher = longer survival
  T/C: 102 % of control
endpoint: median survival time, dose: 2.0 mg/kg/injection, schedule: Q01DX011 (ip), vehicle: Klucel (hydroxypropylcellulose) (HPC), higher = longer survival
  T/C: 86 % of control
endpoint: median survival time, dose: 4.0 mg/kg/injection, schedule: Q01DX011 (ip), vehicle: Klucel (hydroxypropylcellulose) (HPC), higher = longer survival
  T/C: 114 % of control
endpoint: median survival time, dose: 8.0 mg/kg/injection, schedule: Q01DX011 (ip), vehicle: Klucel (hydroxypropylcellulose) (HPC), higher = longer survival
  T/C: 100 % of control

## CCCCCCCCCCCC[N+](C)(C)C (tested in a mixture with another compound)
endpoint: median survival time, dose: 6.25 mg/kg/injection, schedule: Q01DX011 (ip), vehicle: saline, higher = longer survival
  T/C: 110 % of control

## COc1cc([C@@H]2c3cc4c(c(O)c3C[C@H]3COC(=O)[C@@H]32)OCO4)cc(OC)c1O
endpoint: mean tumor weight (est.), dose: 0.12 mg/kg/injection, schedule: Q01DX011 (ip), vehicle: saline, higher = larger tumour
  T/C: 99 % of control
endpoint: mean tumor weight (est.), dose: 0.25 mg/kg/injection, schedule: Q01DX011 (ip), vehicle: saline, higher = larger tumour
  T/C: 94 % of control
endpoint: mean tumor weight (est.), dose: 0.5 mg/kg/injection, schedule: Q01DX011 (ip), vehicle: saline, higher = larger tumour
  T/C: 66 % of control

## O=C1CN(CCN2CC(=O)NC(=O)C2)CC(=O)N1
endpoint: mean tumor weight, dose: 25.0 mg/kg/injection, schedule: Q01DX011 (ip), vehicle: steriod suspending solution, higher = larger tumour
  T/C: 68 % of control and 80 % of control
endpoint: median survival time, dose: 12.5 mg/kg/injection, schedule: Q01DX011 (ip), vehicle: steriod suspending solution, higher = longer survival
  T/C: 111 % of control and 117 % of control
endpoint: median survival time, dose: 25.0 mg/kg/injection, schedule: Q01DX011 (ip), vehicle: steriod suspending solution, higher = longer survival
  T/C: 110 % of control and 114 % of control

## CCN(CC)CCNc1ccc(CO)c2sc3ccccc3c(=O)c12
endpoint: mean tumor weight (est.), dose: 18.75 mg/kg/injection, schedule: Q01DX011 (ip), vehicle: saline, higher = larger tumour
  T/C: 110 % of control
endpoint: mean tumor weight (est.), dose: 37.5 mg/kg/injection, schedule: Q01DX011 (ip), vehicle: saline, higher = larger tumour
  T/C: 56 % of control
endpoint: mean tumor weight (est.), dose: 75.0 mg/kg/injection, schedule: Q01DX011 (ip), vehicle: saline, higher = larger tumour
  T/C: 19 % of control
endpoint: median survival time, dose: 18.75 mg/kg/injection, schedule: Q01DX011 (ip), vehicle: saline, higher = longer survival
  T/C: 105 % of control
endpoint: median survival time, dose: 37.5 mg/kg/injection, schedule: Q01DX011 (ip), vehicle: saline, higher = longer survival
  T/C: 107 % of control
endpoint: median survival time, dose: 75.0 mg/kg/injection, schedule: Q01DX011 (ip), vehicle: saline, higher = longer survival
  T/C: 113 % of control

## CC1CC(C)(O)CC(C(O)CC2CC(=O)NC(=O)C2)C1=O (stereo not given)
endpoint: mean tumor weight, dose: 0.1 mg/kg/injection, schedule: Q01DX011 (ip), vehicle: saline, higher = larger tumour
  T/C: 56 % of control
endpoint: median survival time, dose: 0.1 mg/kg/injection, schedule: Q01DX011 (ip), vehicle: saline, higher = longer survival
  T/C: 90 % of control

## CN(C)C(=O)c1cccc(COc2ccc(N3C(N)=NC(N)=NC3(C)C)cc2Cl)c1
endpoint: mean tumor weight, dose: 3.13 mg/kg/injection, schedule: Q01DX011 (ip), vehicle: saline, higher = larger tumour
  T/C: 66 % of control
endpoint: mean tumor weight, dose: 12.5 mg/kg/injection, schedule: Q01DX011 (ip), vehicle: saline, higher = larger tumour
  T/C: 66 % of control
endpoint: median survival time, dose: 3.13 mg/kg/injection, schedule: Q01DX011 (ip), vehicle: saline, higher = longer survival
  T/C: 103 % of control
endpoint: median survival time, dose: 12.5 mg/kg/injection, schedule: Q01DX011 (ip), vehicle: saline, higher = longer survival
  T/C: 88 % of control

## O=S(=O)(O)C(Nc1ccccc1)c1ccccc1 (stereo not given)
endpoint: mean tumor weight, dose: 200.0 mg/kg/injection, schedule: Q01DX011 (ip), vehicle: water, higher = larger tumour
  T/C: 79 % of control
endpoint: mean tumor weight, dose: 400.0 mg/kg/injection, schedule: Q01DX011 (ip), vehicle: water, higher = larger tumour
  T/C: 58 % of control
